Test systems include DLD-1; DMS-114; HOP-18; KM-20L2; LXFL 529; M19-MEL; SNB-78; XF498; RXF 631.
Assay in all cases: NCI tumour cell line growth inhibition, 48 h

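Interpolation was linear, between the two tested concentrations surrounding the appropriate level; five concentrations were tested over 48 hours in 96-well plates. GI50 = concentration required for 50% inhibition of growth.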 Active and inactive are the calls of the source. Rule as the data show it: active = GI50 up to about 1.1 µM and inactive = higher. Bounds are passed on as bounds.

Consider `OCCN(CCO)c1ncnc2c1sc(=S)n2-c1ccccc1`, for which the GI50 in the assay on DLD-1, in the assay on DMS-114, in the assay with HOP-18, in the assay on KM-20L2, in the assay with LXFL 529 and in the assay on M19-MEL was > 100 µM (inactive) in each case. Also, the GI50 in the assay on SNB-78 and in the assay with XF498 was > 100 µM (inactive) throughout.

Consider `NCCNc1cccc2ccccc12`, for which the GI50 with DLD-1, in the assay with DMS-114, with HOP-18, with KM-20L2, with LXFL 529 and in the assay with M19-MEL was > 100 µM (inactive) each time. Further, the GI50 in the assay with RXF 631 and with SNB-78 was > 100 µM (inactive) throughout.

As to `C/C(CC(=O)Nc1ccc(C)c(C)c1)=N\NC(N)=O`, the GI50 with DLD-1, with DMS-114, in the assay with KM-20L2, with LXFL 529, in the assay with M19-MEL and with SNB-78 was > 100 µM (inactive) throughout.

Regarding `CCOC(=O)C1=C(C)N(NC(=O)Nc2ccccc2)C2(N)N(NC(=O)Nc3ccccc3)C(C)=C(C(=O)OCC)C12C#N` (stereo unspecified), the GI50 was 19.4 µM (inactive) in the assay with DLD-1; 16.1 µM (inactive) with DMS-114; 16.3 µM (inactive) in the assay with HOP-18; 18.7 µM (inactive) with KM-20L2; 18.6 µM (inactive) in the assay with LXFL 529; 17.8 µM (inactive) in the assay on M19-MEL. Also, the GI50 in the assay on SNB-78 is 19.4 µM (inactive).

Turning to `CCOC(=O)C12CCSC1C1(C#N)C(C#N)=CC2(N=P(c2ccccc2)(c2ccccc2)c2ccccc2)n2c(=O)n(-c3ccccc3)c(=O)n21` (stereo unspecified), the GI50 in the assay on DLD-1 was 35.9 µM (inactive); in the assay on DMS-114 it was 29.4 µM (inactive); in the assay on KM-20L2, 65 µM (inactive); in the assay with LXFL 529 it was 28.8 µM (inactive); with M19-MEL, 33.4 µM (inactive); in the assay on RXF 631, 70 µM (inactive). Further, the values for the GI50 in the assay with SNB-78 and in the assay with XF498 were 68.5 µM (inactive) and 24.3 µM (inactive), respectively.

Take `Cn1c2cc([N+](=O)[O-])ccc2c(=O)c2c(O)cc3c(c21)C=CC(C)(C)O3`: the GI50 with DLD-1 was > 100 µM (inactive); in the assay on HOP-18, < 0.01 µM (active); in the assay on KM-20L2 it was > 100 µM (inactive); with LXFL 529, 28.4 µM (inactive); in the assay with SNB-78 it was 40.5 µM (inactive); in the assay with XF498 it was 21 µM (inactive).

Take `CCOC(=O)NC(=O)c1cn(CCCOC(=O)CCCCCCCCC(=O)OCCCn2cc(C(=O)NC(=O)OCC)c(=O)n(C)c2=O)c(=O)n(C)c1=O`: the GI50 with DLD-1, with DMS-114, in the assay with HOP-18, in the assay on KM-20L2, with LXFL 529 and with M19-MEL was > 100 µM (inactive) throughout. In addition, the GI50 is > 80.7 µM (inactive) in the assay with RXF 631 and > 54.3 µM (inactive) with XF498.

For `Cc1nc(O)nc(CC(O)(c2ccccc2)c2ccccc2)c1-c1ccccc1`, the GI50 in the assay with DLD-1 is > 100 µM (inactive); in the assay with DMS-114, 80.5 µM (inactive); in the assay on HOP-18 it was > 100 µM (inactive); in the assay with KM-20L2 it was > 100 µM (inactive); in the assay with LXFL 529, > 100 µM (inactive); with M19-MEL it was > 100 µM (inactive). The GI50 in the assay with RXF 631 and with SNB-78 was > 100 µM (inactive) throughout.

As to `CNS(=O)(=O)NNS(=O)(=O)c1cccc([N+](=O)[O-])c1`, the GI50 in the assay with DLD-1, with DMS-114, in the assay with KM-20L2, with LXFL 529 and in the assay with M19-MEL was > 100 µM (inactive) throughout.

As to `COc1ccc(/C=N/NC(=O)NCCNCCO)cc1`, the GI50 in the assay with DLD-1, in the assay on DMS-114, in the assay on HOP-18, with KM-20L2, in the assay with LXFL 529 and in the assay with M19-MEL was > 100 µM (inactive) throughout. Moreover, the GI50 in the assay on SNB-78 was > 100 µM (inactive).

In the case of `Cc1nc(Nc2ccccc2)sc1C(=O)CC(=O)C(=O)NC12CC3CC(CC(C3)C1)C2`, the GI50 in the assay with DLD-1 is 80.5 µM (inactive); in the assay with DMS-114, 78.7 µM (inactive); in the assay with HOP-18, > 100 µM (inactive); in the assay on KM-20L2 it was 80.7 µM (inactive); in the assay on LXFL 529, 99.5 µM (inactive); with M19-MEL it was > 100 µM (inactive). Moreover, the GI50 in the assay on SNB-78 and in the assay on XF498 was > 100 µM (inactive) in each case.

`Cc1nc2c(n1CC(C)(C)C)C(=O)c1ccccc1C2=O`: the GI50 in the assay with DLD-1, in the assay with KM-20L2, in the assay on LXFL 529, in the assay with SNB-78 and with XF498 was > 100 µM (inactive) throughout.

Regarding `CC1=NN(C(=O)c2ccncc2)C(=O)C1/N=N/c1ccc(F)cc1` (stereo unspecified), the GI50 was > 100 µM (inactive) in the assay with DLD-1; > 100 µM (inactive) in the assay on DMS-114; > 100 µM (inactive) in the assay with KM-20L2; > 100 µM (inactive) with LXFL 529; > 100 µM (inactive) in the assay on M19-MEL; 63.1 µM (inactive) with SNB-78. Besides, the GI50 in the assay with XF498 is > 100 µM (inactive).

Consider `Cc1ccc(/C=C/C(=O)c2sc(-c3cccnc3)nc2C)cc1`, for which the GI50 with DLD-1, in the assay on HOP-18, in the assay with KM-20L2, in the assay on M19-MEL, in the assay on RXF 631 and with SNB-78 was > 100 µM (inactive) in each case.

Consider `Cc1nc2nnc(C)n2c2c1C(=O)Nc1ccccc1N2`, for which the GI50 in the assay with DLD-1, in the assay with DMS-114, with HOP-18, with KM-20L2, with LXFL 529 and in the assay with M19-MEL was > 100 µM (inactive) in each case. Besides, the GI50 in the assay on SNB-78 and with XF498 was > 100 µM (inactive) throughout.

As for `N#Cc1ccc(Nc2cnc3cc(N)ccc3n2)cc1`, the GI50 in the assay on DLD-1 was > 100 µM (inactive); in the assay on DMS-114, 60.5 µM (inactive); in the assay with KM-20L2, 94 µM (inactive); in the assay with LXFL 529, 59.7 µM (inactive); with M19-MEL, 89.7 µM (inactive); in the assay on SNB-78, > 100 µM (inactive). Moreover, the GI50 with XF498 is 74.6 µM (inactive).

Regarding `CCN(CCCl)CCCCCNc1c2ccccc2nc2ccc(OC)cc12`, the GI50 with DLD-1 is 0.35 µM (active); in the assay with DMS-114 it was 0.334 µM (active); in the assay with KM-20L2, 0.655 µM (active); in the assay with LXFL 529 it was 0.444 µM (active); with M19-MEL, 0.476 µM (active); with SNB-78 it was 0.736 µM (active). The GI50 in the assay on XF498 is 0.251 µM (active).

Turning to `N=C(NNS(=O)(=O)c1ccccc1)Oc1ccc(Br)cc1Br`, the GI50 with DLD-1, with DMS-114, in the assay on HOP-18, in the assay with KM-20L2, in the assay on LXFL 529 and with M19-MEL was > 100 µM (inactive) each time. Besides, the GI50 in the assay with RXF 631, in the assay on SNB-78 and in the assay on XF498 was > 100 µM (inactive) in each case.

For `OC1CC1Sc1ccccc1` (stereo unspecified), the GI50 is 29.8 µM (inactive) with DLD-1; 24.7 µM (inactive) in the assay on DMS-114; 22.8 µM (inactive) in the assay on LXFL 529; 32.9 µM (inactive) with M19-MEL; 39.9 µM (inactive) in the assay on RXF 631; 26.9 µM (inactive) with SNB-78. Also, the GI50 in the assay with XF498 was 79.8 µM (inactive).

With `CCOC(=O)[C@H]1Nc2ccc(OC)cc2C2c3ccccc3CC21` (stereo partly specified), the GI50 in the assay on DLD-1, with DMS-114, in the assay on KM-20L2, with LXFL 529, in the assay with M19-MEL and with RXF 631 was > 100 µM (inactive) in each case. Also, the GI50 with SNB-78 and with XF498 was > 100 µM (inactive) each time.

With `CN(C)CCSc1nccc(-c2cc3ccccc3s2)n1`, the GI50 in the assay with DLD-1 is 32.6 µM (inactive); in the assay with DMS-114, 23.2 µM (inactive); with HOP-18, < 0.01 µM (active); in the assay with LXFL 529 it was 16.8 µM (inactive); in the assay with SNB-78, 16.3 µM (inactive).

`N#CC1=C(N)Oc2c(ccc3cccnc23)C1c1ccccc1` (stereo unspecified): the GI50 is 2.3 µM (inactive) with DLD-1; 0.914 µM (active) with DMS-114; > 100 µM (inactive) in the assay on HOP-18; 0.555 µM (active) with KM-20L2; 1.7 µM (inactive) in the assay on LXFL 529; 1.67 µM (inactive) in the assay on M19-MEL. Further, the GI50 in the assay on SNB-78 was 1.45 µM (inactive); in the assay with XF498, 7.98 µM (inactive).

As to `CN(C)c1ccc(/C=C2\C=Cc3ccccc32)cc1`, the GI50 in the assay on DLD-1 was 51.8 µM (inactive); in the assay with DMS-114, 22.1 µM (inactive); with HOP-18, > 100 µM (inactive); in the assay with KM-20L2 it was 42.6 µM (inactive); with LXFL 529 it was 56.4 µM (inactive); in the assay with M19-MEL, > 100 µM (inactive).

As to `C/C(=N\NC(=N)N)C(CN1CCOCC1)C(c1ccccc1)c1c(O)c2ccccc2oc1=O` (stereo unspecified), the GI50 with DLD-1 is > 100 µM (inactive); with DMS-114, 45.8 µM (inactive); in the assay with HOP-18, > 100 µM (inactive); with KM-20L2 it was > 100 µM (inactive); in the assay on LXFL 529, > 100 µM (inactive); in the assay on M19-MEL it was > 100 µM (inactive). For the same compound, the GI50 in the assay on SNB-78 is 50.8 µM (inactive); with XF498 it was > 100 µM (inactive).

Take `COc1cc(C2c3cc4c(cc3[C@@H](Nc3cccc(O)c3)C3COC(=O)[C@H]23)OCO4)cc(OC)c1O` (stereo partly specified): the GI50 in the assay on DLD-1 is 3.56 µM (inactive); in the assay on DMS-114 it was 0.794 µM (active); with HOP-18, 8.59 µM (inactive); with KM-20L2, 2.16 µM (inactive); in the assay on LXFL 529, 2.55 µM (inactive); in the assay with M19-MEL, 1.97 µM (inactive). The GI50 was 6.03 µM (inactive) in the assay with SNB-78 and 0.766 µM (active) in the assay with XF498.

As to `[N-]=[N+]=NC12CC3C4CC5CC3C(C1)C(C5)C4C2`, the GI50 in the assay with DLD-1, with DMS-114, in the assay on HOP-18, in the assay on LXFL 529, in the assay with M19-MEL and in the assay on RXF 631 was > 100 µM (inactive) in each case. The GI50 in the assay on SNB-78 and in the assay on XF498 was > 100 µM (inactive) throughout.
